From publication PMC12206033, “Selective inhibition of TRPV3 channel by natural rosmarinic acid and its analogs for alleviation of skin lesions through downregulation of NF-κB pathway” (The Journal of Biological Chemistry, 2025)

Experiments:
TRPV3 T636A = molecular target: T1, TRPV3 T636A (Homo sapiens, UniProt Q8NET8, T636A); assay: whole-cell patch-clamp of hTRPV3 T636A mutant currents; format: cell-based; conditions: ROSA 100 μM; 2-APB; read-out: inhibition of macroscopic hTRPV3 T636A currents
T1 construct: expressed in transfected cells; host or cells: HEK293T
T1 sequence (Q8NET8 1-790 T636A): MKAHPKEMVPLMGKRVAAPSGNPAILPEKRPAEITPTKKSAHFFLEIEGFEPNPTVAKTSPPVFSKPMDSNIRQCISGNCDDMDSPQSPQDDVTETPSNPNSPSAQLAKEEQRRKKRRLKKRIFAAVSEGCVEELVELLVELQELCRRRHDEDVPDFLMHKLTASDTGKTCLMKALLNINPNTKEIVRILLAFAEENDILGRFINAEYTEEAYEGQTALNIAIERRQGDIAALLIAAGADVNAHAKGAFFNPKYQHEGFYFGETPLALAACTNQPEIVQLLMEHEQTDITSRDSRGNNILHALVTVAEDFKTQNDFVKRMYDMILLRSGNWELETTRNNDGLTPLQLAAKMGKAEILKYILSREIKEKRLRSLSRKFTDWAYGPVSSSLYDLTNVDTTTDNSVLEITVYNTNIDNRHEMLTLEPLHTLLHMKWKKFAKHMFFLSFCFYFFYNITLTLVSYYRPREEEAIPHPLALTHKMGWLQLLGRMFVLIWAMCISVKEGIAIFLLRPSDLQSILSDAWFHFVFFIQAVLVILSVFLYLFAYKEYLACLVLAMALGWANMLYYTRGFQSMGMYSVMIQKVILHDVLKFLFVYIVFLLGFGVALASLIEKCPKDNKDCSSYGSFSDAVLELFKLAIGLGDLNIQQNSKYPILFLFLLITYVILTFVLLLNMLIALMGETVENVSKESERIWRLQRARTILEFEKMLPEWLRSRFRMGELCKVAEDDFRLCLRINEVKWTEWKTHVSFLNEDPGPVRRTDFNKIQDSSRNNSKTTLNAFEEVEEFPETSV
Description: (§1) HEK293T cell line was obtained from the Cell Resource Center, Peking Union Medical College. HEK293T cells were maintained in Dulbecco’s modified Eagle’s medium (DMEM, Gibco) supplemented with 10% fetal bovine serum at 37 °C with 5% CO2. […] The next day, determine the plasmid transfection status by observing green fluorescence based on expression of enhanced GFP as an indicator. […] When conducting experiments on HEK293T cells transfected with G573S point mutant TRPV3 plasmid, we replaced culture medium with or without compounds after 4 h of transfection and then observed green fluorescence of HEK293T cell after 10 h. As for the relative fluorescence intensity, we convert the image to 8 bit grayscale using ImageJ (Https://imagej.net/software/fiji/downloads) and set an appropriate threshold value to reduce background noise and enhance the image contrast.
(§2) All patch-clamp recordings were conducted 16 to 24 h after transfection using an EPC10 amplifier powered by PatchMaster software (HEKA) (https://www.heka.com/downloads/downloads_main.html#down_patchmaster) at room temperature. […] Currents were recorded at a potential ramp from −100 mV to +100 mV for 1000 ms with 1000-ms intervals (for whole-cell recordings) or a persistent potential of −60 mV (inside-out patch recordings). […]

hTRPM8 = molecular target: T2, hTRPM8 (Homo sapiens, UniProt Q7Z2W7); assay: whole-cell patch-clamp of hTRPM8 currents activated by menthol; format: cell-based; conditions: ROSA 50 μM; agonist menthol 30 μM (legend: 500 μM)
T2 construct: expressed in transfected cells; host or cells: HEK293T
Description: as §1, §2

[1] = tested on: HEK293T cells expressing hTRPV3; assay: Hoechst 33342/propidium iodide double staining cell death assay; format: cell-based; conditions: inhibitor 20 μM added 1 h before Car 300 μM
Description: For cell death assay, HEK293T cells transfected with hTRPV3 were seeded in 6-well plates and randomly divided into different groups. TRPV3 and NF-κB inhibitors were added 1 h before the addition of Car. After administration of Car for 1 h, cell death was detected using Hoechst 33342/propidium iodide Double Stain Kit (Solarbio). After staining, cells were resuspended with PBS buffer. Five random view images in each group were taken under a microscope (Eclipse Ti, Nikon) and counted using ImageJ software (National Institutes of Health).

[2] = tested on: Car-induced ear swelling and dorsal skin inflammation in mice; assay: mouse model of ear swelling and dorsal skin inflammation induced by skin sensitizer Car (3%); format: in vivo
Excerpt: Adult C57BL/6J mice (aged 6–8 weeks, weighing 20 ± 2 g) were purchased from the Beijing Vital River Laboratory Animal Technology Co. Ltd. TRPV3-KO mice were purchased from Cyagen Biosciences Inc. All mice were housed in plastic cages with natural poplar wood bedding materials, accommodating three to five mice per cage. The housing environment was maintained at a controlled room temperature of (23 ± 2) °C and humidity of (50 ± 5) %, with 12-h light/dark cycle (lights on at 7:00 AM and off at 7:00 PM). Mice had free access to food and water. All animal test protocols were approved by the Institutional Animal Care and Use Committee of Qingdao University Health Science Center and were conducted in accordance with institutional and national guidelines for the use and care of animals in experiments. All mice were anesthetized with isoflurane (1%–1.5%) using an isoflurane gas anesthesia device and were euthanized under anesthesia.
Skin sensitizer Car was dissolved in saline solution containing 30% ethanol. The dorsal skin or ear of mice was swabbed with 3% Car for four consecutive days. To investigate the effects of ROSA, it was diluted to concentration of 0.1/1/10 mM with saline and topically applied on the ear and dorsal skin once a day for 4 days. The control group only received swabs with the solvent.

T2 sequence (Q7Z2W7 whole entry): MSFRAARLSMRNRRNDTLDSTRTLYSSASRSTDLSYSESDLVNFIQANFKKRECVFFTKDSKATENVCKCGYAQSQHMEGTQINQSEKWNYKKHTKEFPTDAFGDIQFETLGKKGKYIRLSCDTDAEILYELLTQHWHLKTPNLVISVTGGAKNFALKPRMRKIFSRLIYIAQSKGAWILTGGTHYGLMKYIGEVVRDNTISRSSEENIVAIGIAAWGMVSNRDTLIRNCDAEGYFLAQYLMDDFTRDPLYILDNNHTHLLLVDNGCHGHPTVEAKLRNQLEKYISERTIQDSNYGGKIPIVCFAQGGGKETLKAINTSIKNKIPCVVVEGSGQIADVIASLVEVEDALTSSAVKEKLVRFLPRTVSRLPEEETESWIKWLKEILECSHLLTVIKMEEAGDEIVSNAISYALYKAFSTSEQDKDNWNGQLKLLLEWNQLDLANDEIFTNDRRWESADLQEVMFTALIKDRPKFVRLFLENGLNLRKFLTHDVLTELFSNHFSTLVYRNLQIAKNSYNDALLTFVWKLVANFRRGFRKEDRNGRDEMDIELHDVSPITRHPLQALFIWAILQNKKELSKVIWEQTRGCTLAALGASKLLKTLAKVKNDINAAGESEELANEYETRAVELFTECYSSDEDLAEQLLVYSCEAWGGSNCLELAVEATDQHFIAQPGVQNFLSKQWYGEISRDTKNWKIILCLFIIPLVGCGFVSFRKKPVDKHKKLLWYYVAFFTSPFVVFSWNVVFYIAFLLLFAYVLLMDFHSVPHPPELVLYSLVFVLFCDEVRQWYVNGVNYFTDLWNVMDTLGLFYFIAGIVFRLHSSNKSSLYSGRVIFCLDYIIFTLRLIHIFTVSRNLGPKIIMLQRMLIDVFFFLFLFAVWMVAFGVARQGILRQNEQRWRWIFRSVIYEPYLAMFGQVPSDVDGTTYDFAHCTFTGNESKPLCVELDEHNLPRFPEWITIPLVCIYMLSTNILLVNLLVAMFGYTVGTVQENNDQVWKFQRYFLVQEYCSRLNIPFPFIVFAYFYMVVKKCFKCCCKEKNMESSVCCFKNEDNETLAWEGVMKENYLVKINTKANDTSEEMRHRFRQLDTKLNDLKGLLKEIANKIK

Q: Which results are given for `O=C(/C=C/c1ccc(O)c(O)c1)O[C@H](Cc1ccc(O)c(O)c1)C(=O)O` [ROSA, rosmarinic acid]?
A: inhibition at 100 µM (TRPV3 T636A): 14.7%; inhibition of TRPM8 currents (hTRPM8): 0.7 ± 6.7%; cell death ratio [1]: 17%; ear thickness in Trpv3 KO mice ([2]; topical ROSA 10 mM, Trpv3 KO mice, Car): no further reduction of ear thickness; ear and dorsal skin inflammation ([2]; topical ROSA 0.1, 1.0 and 10 mM once a day for 4 days, 3% Car, compared to Car alone): significantly alleviated the ear and dorsal skin inflammation; ear swelling scores ([2]; topical ROSA 0.1, 1.0 and 10 mM, 3% Car, compared to Car alone): reduced the ear swelling scores in both dose- and time-dependent manner; ear thickness ([2]; topical ROSA, 3% Car, compared to Car alone): reduction in ear thickness was also evident, starting on the third day; dermatitis scores, dorsal skin ([2]; topical ROSA, 3% Car, fourth day): significant difference in dermatitis scores between the ROSA group and the Car group
